The structures appear in SMILES notation. Bounds are passed on as bounds.

Chain of human recombinant H-PGDS (O60760 whole entry): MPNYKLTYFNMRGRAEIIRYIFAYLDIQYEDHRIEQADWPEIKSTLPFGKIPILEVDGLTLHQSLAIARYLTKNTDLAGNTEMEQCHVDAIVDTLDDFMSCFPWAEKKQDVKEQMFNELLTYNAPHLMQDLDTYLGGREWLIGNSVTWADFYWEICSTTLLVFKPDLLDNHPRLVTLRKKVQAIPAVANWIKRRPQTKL

For the assay, the target named is human recombinant H-PGDS (Homo sapiens, UniProt O60760). Put plainly: Fluorescence Intensity h-PGDS TBA Enzyme Assay. The assay is classed as biochemical. To be noted: 1:175,000 human recombinant H-PGDS, highest inhibitor concentration typically 1 μM. The method in brief:
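Readout is PGH2 depletion: after a 42 s reaction with 5.0 μM PGH2 and 2.5 mM glutathione (pH 8.0 Tris, 10 min inhibitor preincubation), Fe(II) converts leftover PGH2 to MDA, which forms a fluorescent TBA complex. IC50s come from 11-point, 3-fold duplicate curves, 4-parameter fit.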
Regarding `CN(C)C(=O)CNC(=O)c1ccc(-c2ccc(F)cc2)nc1` [Example 325, N-[2-(Dimethylamino)-2-oxoethyl]-6-(4-fluorophenyl)nicotinamide], the half-maximal inhibitory concentration (IC50) was at least 1000 nM.
The figure for `CCCCNC(=O)c1ccc(-c2ccc(F)cc2)nc1` [Example 326, N-Butyl-6-(4-fluorophenyl)nicotinamide] is 414 nM.
The figure for `O=C(NCCCN1CCCC1=O)c1ccc(-c2ccc(F)cc2)nc1` [Example 327, 6-(4-Fluorophenyl)-N-[3-(2-oxopyrrolidin-1-yl)propyl]nicotinamide] is 597 nM.
The figure for `O=C(Nc1cccnc1)c1ccc(-c2ccc(F)cc2)nc1` [Example 328, 6-(4-Fluorophenyl)-N-pyridin-3-ylnicotinamide] is 92 nM.
For `O=C(NCc1ccc(-n2cncn2)cc1)c1ccc(-c2ccc(F)cc2)nc1` [Example 329, 6-(4-Fluorophenyl)-N-[4-(1H-1,2,4-triazol-1-yl)benzyl]nicotinamide], the IC50 was determined as 552 nM.
The figure for `CCOC(=O)CCCNC(=O)c1ccc(-c2ccc(F)cc2)nc1` [Example 330, Ethyl 4-({[6-(4-fluorophenyl)pyridin-3-yl]carbonyl}amino)butanoate] is 507 nM; for `CCOC(=O)C(CNC(=O)c1ccc(-c2cccc(OC)c2)nc1)c1c(F)cccc1F` (centres unmarked) [Example 331, Ethyl 2-(2,6-difluorophenyl)-3-({[6-(3-methoxyphenyl)pyridin-3-yl]carbonyl}amino) propanoate] it is 234 nM; for `COc1cccc(-c2ccc(C(=O)NCCN3CCOCC3)cn2)c1` [Example 332, 6-(3-Methoxyphenyl)-N-(2-morpholin-4-ylethyl)nicotinamide] it is 326 nM.
The figure for `COc1cccc(-c2ccc(C(=O)NCc3ccccc3C)cn2)c1` [Example 333, 6-(3-Methoxyphenyl)-N-(2-methylbenzyl)nicotinamide] is 77.1 nM; for `CCOC(=O)CC(NC(=O)c1ccc(-c2cccc(OC)c2)nc1)c1ccc(Cl)cc1` (centres unmarked) [Example 334, Ethyl 3-(4-chlorophenyl)-3-({[6-(3-methoxyphenyl)pyridin-3-yl]cabonyl}amino)propanoate] it is at least 1000 nM; for `COC(=O)CCNC(=O)c1ccc(-c2cccc(OC)c2)nc1` [Example 335, Methyl N-{[6-(3-methoxyphenyl)pyridin-3-yl]carbonyl}-beta-alaninate] it is 352 nM.
For `COc1cccc(-c2ccc(C(=O)Nc3ccncc3)cn2)c1` [Example 336, 6-(3-Methoxyphenyl)-N-pyridin-4-ylnicotinamide] the value was 87.3 nM; for `COC(=O)CC(NC(=O)c1ccc(-c2cccc(OC)c2)nc1)c1cccnc1` (centres unmarked) [Example 337, Methyl 3-({[6-(3-methoxyphenyl)pyridin-3-yl]carbonyl}amino)-3-pyridin-3-ylpropanoate], 396 nM.
In the case of `COc1cccc(-c2ccc(C(=O)NCC(C)C)cn2)c1` [Example 338, N-isobutyl-6-(3-methoxyphenyl)nicotinamide], the IC50 stood at 298 nM.
The figure for `COc1cccc(-c2ccc(C(=O)NC(C)c3ccccc3)cn2)c1` (centres unmarked) [Example 339, 6-(3-Methoxyphenyl)-N-(1-phenylethyl)nicotinamide] is 266 nM; for `COC(=O)[C@H](C)NC(=O)c1ccc(-c2cccc(OC)c2)nc1` [Example 340, Methyl N-{[6-(3-methoxyphenyl)pyridin-3-yl]carbonyl}alaninate] it is at least 1000 nM.
For `COc1cccc(-c2ccc(C(=O)NCc3ccccc3)cn2)c1` [Example 341, N-Benzyl-6-(3-methoxyphenyl)nicotinamide] the value was 131 nM; for `COc1cccc(-c2ccc(C(=O)NCC(C)(C)CN(C)C)cn2)c1` [Example 342, N-[3-(Dimethylamino)-2,2-dimethylpropyl]-6-(3-methoxyphenyl)nicotinamide], at least 1000 nM.
The figure for `COc1cccc(-c2ccc(C(=O)NCC(=O)N(C)C)cn2)c1` [Example 343, N-[2-(Dimethylamino)-2-oxoethyl]-6-(3-methoxyphenyl)nicotinamide] is 975 nM.
Take `COC(=O)c1ccc(CNC(=O)c2ccc(-c3cccc(OC)c3)nc2)cc1` [Example 344, Methyl 4-[({[6-(3-methoxyphenyl)pyridin-3-yl]carbonyl}amino)methyl] benzoate]: the IC50 was 159 nM.
For `COc1cccc(-c2ccc(C(=O)NCCc3ccncc3)cn2)c1` [Example 345, 6-(3-Methoxyphenyl)-N-(2-pyridin-4-ylethyl)nicotinamide] the value was 308 nM.
The figure for `O=C(NCc1cccc(F)c1)c1ccc(-c2ccccc2)nc1` [Example 346, N-(3-Fluorobenzyl)-6-phenylnicotinamide] is 4.07 nM.
For `O=C(NCc1ccccc1)c1ccc(-c2ccccc2)nc1` [Example 347, N-Benzyl-6-phenylnicotinamide] the value was 4.3 nM; for `COC(=O)CNC(=O)[C@H](C)NC(=O)c1ccc(-c2ccccc2)nc1` [Example 348, Methyl N-[(6-phenylpyridin-3-yl)carbonyl]-L-alanylglycinate], 24.6 nM.
Turning to `COC(=O)[C@H](C)NC(=O)c1ccc(-c2ccccc2)nc1` [Example 349, Methyl N-[(6-phenylpyridin-3-yl)carbonyl]alaninate], the IC50 came out at 47 nM.
For `O=C(NCCCN1CCCC1=O)c1ccc(-c2ccccc2)nc1` [Example 350, N-[3-(2-Oxopyrrolidin-1-yl)propyl]-6-phenylnicotinamide] the value was 6.8 nM.
For `O=C(NCCN1CCCC1=O)c1ccc(-c2ccccc2)nc1` [Example 351, N-[2-(2-Oxopyrrolidin-1-yl)ethyl]-6-phenylnicotinamide] the value was 25.4 nM.
For `CN(C)CC(C)(C)CNC(=O)c1ccc(-c2ccccc2)nc1` [Example 352, N-[3-(Dimethylamino)-2,2-dimethylpropyl]-6-phenylnicotinamide] the value was 458 nM.
As to `CC(C)(CNC(=O)c1ccc(-c2ccccc2)nc1)N1CCOCC1` [Example 353, N-(2-Methyl-2-morpholin-4-ylpropyl)-6-phenylnicotinamide], the IC50 is 25.3 nM.
With `O=C(Nc1cccnc1)c1ccc(-c2ccccc2)nc1` [Example 354, 6-Phenyl-N-pyridin-3-ylnicotinamide], the IC50 came out at 1.66 nM.
For `CCOC(=O)C(CNC(=O)c1ccc(-c2ccccc2)nc1)c1c(F)cccc1F` (centres unmarked) [Example 355, Ethyl 2-(2,6-difluorophenyl)-3-{[(6-phenylpyridin-3-yl)carbonyl]amino}propanoate] the value was 138 nM; for `O=C(NCCc1ccncc1)c1ccc(-c2ccccc2)nc1` [Example 356, 6-Phenyl-N-(2-pyridin-4-ylethyl)nicotinamide], 11.6 nM.
In the case of `O=C(NCc1cc(F)cc2c1OCOC2)c1ccc(-c2ccccc2)nc1` [Example 357, N-[(6-Fluoro-4H-1,3-benzodioxin-8-yl)methyl]-6-phenylnicotinamide], the IC50 turned out to be 1.73 nM.
With `O=C(NCCN1CCCC1)c1ccc(-c2ccccc2)nc1` [Example 358, 6-Phenyl-N-(2-pyrrolidin-1-ylethyl)nicotinamide], the IC50 worked out at 199 nM.
For `O=C(NCCN1CCOC1=O)c1ccc(-c2ccccc2)nc1` [Example 359, N-[2-(2-Oxo-1,3-oxazolidin-3-yl)ethyl]-6-phenylnicotinamide] the value was 37.1 nM; for `O=C(NCCC1CCC(=O)N1CCN1CCNC1=O)c1ccc(-c2ccccc2)nc1` (centres unmarked) [Example 360, N-(2-{5-Oxo-1-[2-(2-oxoimidazolidin-1-yl)ethyl]pyrrolidin-2-yl}ethyl)-6-phenylnicotinamide], 10.3 nM.
For `O=C(NCCN1CCCCC1)c1ccc(-c2ccccc2)nc1` [Example 361, 6-Phenyl-N-(2-piperidin-1-ylethyl)nicotinamide] the value was 11.8 nM; for `CCOC(=O)CC(NC(=O)c1ccc(-c2ccccc2)nc1)c1ccc(OC)cc1` (centres unmarked) [Example 362, Ethyl 3-(4-methoxyphenyl)-3-{[(6-phenylpyridin-3-yl)carbonyl]amino}propanoate], 12 nM; for `O=C(NCCc1cccs1)c1ccc(-c2ccccc2)nc1` [Example 363, 6-Phenyl-N-[2-(2-thienyl)ethyl]nicotinamide], 5.1 nM.
For `NC(CC(=O)NC(=O)c1ccc(-c2ccccc2)nc1)C1CC1` (centres unmarked) [Example 364, N-(3-Amino-3-cyclopropylpropanoyl)-6-phenylnicotinamide] the value was 39.3 nM; for `Cc1ccc(CNC(=O)c2ccc(-c3ccccc3)nc2)cc1` [Example 365, N-(4-Methylbenzyl)-6-phenylnicotinamide], 4.2 nM.
`O=C(NC1CCOCC1)c1ccc(-c2ccccc2)nc1` [Example 366, 6-Phenyl-N-(tetrahydro-2H-pyran-4-yl)nicotinamide]: the IC50 came out at 7.5 nM.
Take `O=C(CNC(=O)c1ccc(-c2ccccc2)nc1)OCc1ccccc1` [Example 367, Benzyl N-[(6-phenylpyridin-3-yl)carbonyl]glycinate]: the IC50 worked out at 6.6 nM.
With `CCCCNC(=O)c1ccc(-c2ccccc2)nc1` [Example 368, N-Butyl-6-phenylnicotinamide], the IC50 came out at 16.6 nM.
In the case of `COC(=O)[C@H](Cc1ccc(Cl)cc1)NC(=O)c1ccc(-c2ccccc2)nc1` [Example 369, Methyl 4-chloro-N-[(6-phenylpyridin-3-yl)carbonyl]phenylalaninate], the 50% inhibitory concentration (IC50) stood at 9.3 nM.
The figure for `COC(=O)CC(NC(=O)c1ccc(-c2ccccc2)nc1)c1cccnc1` (centres unmarked) [Example 370, Methyl 3-{[(6-phenylpyridin-3-yl)carbonyl]amino}-3-pyridin-3-ylpropanoate] is 32.9 nM; for `CCC1CCN(CCNC(=O)c2ccc(-c3ccccc3)nc2)CC1` [Example 371, N-[2-(4-Ethylpiperidin-1-yl)ethyl]-6-phenylnicotinamide] it is 20.1 nM.
